We go through 33 compounds from patent US10752640B2, “Compounds active towards bromodomains” (NUEVOLUTION A/S, priority 2014, dated 2020).

This test deals with BRD4 protein (Homo sapiens, UniProt O60885). Nature of the test: FRET assay, half maximal inhibitory concentration (IC50). Format: binding. As to conditions: BRD4 protein 50 nM, Biotin-H4KAc4 peptide 12.5 nM; List of Classification. As for the experimental part: The compounds were biologically evaluated by determining the half maximal inhibitory concentration (IC50) by FRET assay. The IC50 is a measure of the effectiveness of a substance in inhibiting a specific biological or biochemical function.
For IC50 determinations, dose-response curves were generated, using a top concentration of 50 μM compound in 12.5% DMSO, followed by 10-fold dilutions in 12.5% DMSO. The composition of the reaction buffer was 50 mM HEPES, pH 7.5; 100 mM NaCl, 0.05% CHAPS.
The reaction was run in a final volume of 25 μl. The BRD4 protein (16.5 μl) was added to wells of 384w white Optiplates (Perkin Elmer) (50 nM final concentration) and 1 μl of compound dilution of DMSO control. Incubation time was 30 minutes at room temperature. In the next step, 2.5 μl Biotin-H4KAc4 peptide (Millipore 13-379) was added to the wells (final concentration was 12.5 nM), and the plates were incubated for 30 minutes at room temperature. Detection was performed by addition of 5 μl of a mix of mAb GST-XL665 (Cisbio 61GSTXLB) (10 nM final concentration) and Streptavidin Cryptate (Cisbio 610SAKLB) (2.4 nM final conc.) in reaction buffer with 0.4M KF and 0.05% BSA). The plates were incubated for one hour prior to reading on an Envision reader (Perkin Elmer)
Data was analyzed using GraphPad Prism, and IC50 data was obtained using non-linear regression curve fit using log(inhibitor) vs response (variable slope). All compounds were considered active although classified (according to the half maximal inhibitory concentration (IC50) by FRET assay) as follows: […]
The IC50 is the midpoint of a concentration-inhibition curve. Consider `Cc1cc(O)nc2ccc(NC(=O)c3cc(NCC(N)=O)ccc3N3CCOCC3)cc12` [Compound-55, 5-[(2-amino-2-oxo-ethyl)amino]-N-(2-hydroxy-4-methyl-6-quinolyl)-2-morpholino-benzamide], for which the half-maximal inhibitory concentration (IC50) was in the range of 200 to 500 nM. Turning to `Cc1cc(O)nc2ccc(NC(=O)c3cc(S(=O)(=O)N4CCOCC4)ccc3N3CCOCC3)cc12` [Compound-68, N-(2-hydroxy-4-methyl-6-quinolyl)-2-morpholino-5-morpholinosulfonyl-benzamide], the IC50 is < 200 nM. For `COc1ccccc1C(=O)Nc1ccc2nc(O)cc(C)c2c1` [Compound-69, N-(2-hydroxy-4-methyl-6-quinolyl)-2-methoxy-benzamide] the value was > 10000 nM.

Turning to `Cc1cc(O)nc2ccc(NC(=O)c3cc(S(N)(=O)=O)ccc3N3CCOCC3)cc12` [Compound-70, N-(2-hydroxy-4-methyl-6-quinolyl)-2-morpholino-5-sulfamoyl-benzamide], the IC50 is < 200 nM.

For `Cc1cc(O)nc2ccc(NC(=O)c3cc(S(=O)(=O)N(C)C)ccc3N3CCCC3)cc12` [Compound-72, 5-(dimethylsulfamoyl)-N-(2-hydroxy-4-methyl-6-quinolyl)-2-pyrrolidin-1-yl-benzamide], the IC50 was < 200 nM. As for `Cc1cc(O)nc2ccc(NC(=O)c3cc(S(=O)(=O)N(C)C)ccc3N3CCOCC3)cc12` [Compound-73, 5-(dimethylsulfamoyl)-N-(2-hydroxy-4-methyl-6-quinolyl)-2-morpholino-benzamide], the figure is < 200 nM; as for `Cc1cc(O)nc2ccc(NC(=O)c3cc(S(=O)(=O)N4CCOCC4)ccc3N3CCCC3)cc12` [Compound-74, N-(2-hydroxy-4-methyl-6-quinolyl)-5-morpholinosulfonyl-2-pyrrolidin-1-yl-benzamide], < 200 nM.

With `Cc1cc(O)nc2ccc(NS(=O)(=O)c3cc([N+](=O)[O-])ccc3N3CCOCC3)cc12` [Compound-76, N-(2-hydroxy-4-methyl-6-quinolyl)-2-morpholino-5-nitro-benzenesulfonamide], the IC50 was in the range of 1000 to 10000 nM. For `Cc1cc(O)nc2ccc(NS(=O)(=O)c3cc(N)ccc3N3CCOCC3)cc12` [Compound-77, 5-amino-N-(2-hydroxy-4-methyl-6-quinolyl)-2-morpholino-benzenesulfonamide] the value was > 10000 nM. As for `CN(C)S(=O)(=O)c1ccc(N2CCOCC2)c(C(=O)Nc2ccc3[nH]c(=O)cc(C(F)(F)F)c3c2)c1` [Compound-79, 5-(dimethylsulfamoyl)-2-morpholino-N-[2-oxo-4-(trifluoromethyl)-1H-quinolin-6-yl]benzamide], the IC50 lay within 1000 to 10000 nM. As for `Cc1cc(O)nc2ccc(NS(=O)(=O)c3cc(S(N)(=O)=O)ccc3N3CCOCC3)cc12` [Compound-80, N3-(2-hydroxy-4-methyl-6-quinolyl)-4-morpholino-benzene-1,3-disulfonamide], the figure is > 10000 nM; as for `Cc1cc(O)nc2ccc(NC(=O)c3cc([N+](=O)[O-])ccc3N3CCCC3)cc12` [Compound-82, N-(2-hydroxy-4-methyl-6-quinolyl)-5-nitro-2-pyrrolidin-1-yl-benzamide], < 200 nM; as for `Cc1cc(O)nc2ccc(NC(=O)c3cc4c(ccn4CC4NCCO4)cc3N3CCCC3)cc12` (stereo not drawn) [Compound-84, N-(2-hydroxy-4-methyl-6-quinolyl)-1-(oxazolidin-2-ylmethyl)-5-pyrrolidin-1-yl-indole-6-carboxamide], < 200 nM. As for `Cc1cc(O)nc2ccc(NC(=O)c3cc4[nH]cc(CN(C)C)c4cc3N3CCCC3)cc12` [Compound-85, 3-(dimethylaminomethyl)-N-(2-hydroxy-4-methyl-6-quinolyl)-5-pyrrolidin-1-yl-1H-indole-6-carboxamide], the figure is < 200 nM; as for `Cc1cc(O)nc2ccc(NC(=O)c3cc4c(ccn4CC(N)=O)cc3N3CCCC3)cc12` [Compound-86, 1-(2-amino-2-oxo-ethyl)-N-(2-hydroxy-4-methyl-6-quinolyl)-5-pyrrolidin-1-yl-indole-6-carboxamide], < 200 nM; as for `Cc1cc(O)nc2ccc(NC(=O)c3cc(CN4CCOCC4)cnc3N3CCCC3)cc12` [Compound-87, N-(2-hydroxy-4-methyl-6-quinolyl)-5-(morpholinomethyl)-2-pyrrolidin-1-yl-pyridine-3-carboxamide], < 200 nM. As for `Cc1cc(O)nc2ccc(NC(=O)c3cc(CN4CCOCC4)cnc3N3CCC(F)C3)cc12` (stereo not drawn) [Compound-88, 2-(3-fluoropyrrolidin-1-yl)-N-(2-hydroxy-4-methyl-6-quinolyl)-5-(morpholinomethyl)pyridine-3-carboxamide], the IC50 was < 200 nM. Consider `Cc1cc(O)nc2ccc(NC(=O)c3cc(CN4CCOCC4)cnc3N3CCC(O)C3)cc12` (stereo not drawn) [Compound-89, N-(2-hydroxy-4-methyl-6-quinolyl)-2-(3-hydroxypyrrolidin-1-yl)-5-(morpholinomethyl)pyridine-3-carboxamide], for which the IC50 is < 200 nM. Turning to `Cc1cc(O)nc2ccc(NC(=O)c3cc(CN4CCOCC4)cnc3N3CCOCC3)cc12` [Compound-90, N-(2-hydroxy-4-methyl-6-quinolyl)-2-morpholino-5-(morpholinomethyl)pyridine-3-carboxamide], the IC50 is < 200 nM. As for `O=C(Nc1ccc2nc(O)cc(Cl)c2c1)c1cc(CN2CCOCC2)cnc1N1CCOCC1` [Compound-91, N-(4-chloro-2-hydroxy-6-quinolyl)-2-morpholino-5-(morpholinomethyl)pyridine-3-carboxamide], the figure is < 200 nM. For `Cc1cc(=O)nc2ccc(NC(=O)c3cc(CN4CCOCC4)cnc3N3CCCC3)cn12` [Compound-92, N-(4-methyl-2-oxo-pyrido[1,2-a]pyrimidin-7-yl)-5-(morpholinomethyl)-2-pyrrolidin-1-yl-pyridine-3-carboxamide] the value was > 10000 nM; for `Cc1cc(O)nc2ccc(NC(=O)c3cc(CN4CCOCC4)cnc3N3CCCC3)nc12` [Compound-93, N-(8-methyl-6-oxo-5H-1,5-naphthyridin-2-yl)-5-(morpholinomethyl)-2-pyrrolidin-1-yl-pyridine-3-carboxamide], 1000 to 10000 nM; for `Cc1cc(=O)[nH]c2ccc(NC(=O)c3cc(S(=O)(=O)N4CCOCC4)ccc3N3CCCC3)nc12` [Compound-94, N-(8-methyl-6-oxo-5H-1,5-naphthyridin-2-yl)-5-morpholinosulfonyl-2-pyrrolidin-1-yl-benzamide], > 10000 nM. As for `Cc1cc(O)nc2ccc(NC(=O)c3ccncc3N3CCCC3)cc12` [Compound-95, N-(2-hydroxy-4-methyl-6-quinolyl)-3-pyrrolidin-1-yl-pyridine-4-carboxamide], the figure is < 200 nM.

On to `Cc1cc(O)nc2ccc(NC(=O)c3cccnc3N3CCCC3)cc12` [Compound-96, N-(2-hydroxy-4-methyl-6-quinolyl)-2-pyrrolidin-1-yl-pyridine-3-carboxamide], for which the IC50 is < 200 nM. With `Cc1cc(O)nc2ccc(NC(=O)c3cccnc3N3CCCC3CN(C)C)cc12` (stereo not drawn) [Compound-97, 2-[2-(dimethylaminomethyl)pyrrolidin-1-yl]-N-(2-hydroxy-4-methyl-6-quinolyl)pyridine-3-carboxamide], the IC50 is < 200 nM. For `COc1cc(O)nc2ccc(NC(=O)c3cc(CN4CCN(C)CC4)ccc3N3CCCC3)cc12` [Compound-98, N-(2-hydroxy-4-methoxy-6-quinolyl)-5-[(4-methylpiperazin-1-yl)methyl]-2-pyrrolidin-1-yl-benzamide], the IC50 was < 200 nM. As for `O=C1CCc2cc(NC(=O)c3cc(S(=O)(=O)N4CCOCC4)ccc3N3CCCC3)ccc2N1` [Compound-100, 5-morpholinosulfonyl-N-(2-oxo-3,4-dihydro-1H-quinolin-6-yl)-2-pyrrolidin-1-yl-benzamide], the figure is 500 to 1000 nM; as for `CC1CC(=O)Nc2ccc(NC(=O)c3cc(CN4CCOCC4)ccc3N3CCCC3)cc21` (stereo not drawn) [Compound-101, N-(4-methyl-2-oxo-3,4-dihydro-1H-quinolin-6-yl)-5-(morpholinomethyl)-2-pyrrolidin-1-yl-benzamide], < 200 nM; as for `CC1CC(=O)Nc2ccc(NC(=O)c3cc(S(=O)(=O)N(C)C)ccc3N3CCCC3)cc21` (stereo not drawn) [Compound-102, 5-(dimethylsulfamoyl)-N-(4-methyl-2-oxo-3,4-dihydro-1H-quinolin-6-yl)-2-pyrrolidin-1-yl-benzamide], < 200 nM.

`CC1(C)CC(=O)Nc2ccc(NC(=O)c3cc(CN4CCOCC4)ccc3N3CCCC3)cc21` [Compound-103, N-(4,4-dimethyl-2-oxo-1,3-dihydroquinolin-6-yl)-5-(morpholinomethyl)-2-pyrrolidin-1-yl-benzamide] returned an IC50 of 200 to 500 nM. Consider `CN(C)S(=O)(=O)c1ccc(N2CCCC2)c(C(=O)Nc2ccc3c(c2)C(C)(C)CC(=O)N3)c1` [Compound-104, N-(4,4-dimethyl-2-oxo-1,3-dihydroquinolin-6-yl)-5-(dimethylsulfamoyl)-2-pyrrolidin-1-yl-benzamide], for which the IC50 was < 200 nM. `Cc1cc(O)nc2ccc(NC(=O)c3cc(N)ccc3-n3cccn3)cc12` [Compound-105, 5-amino-N-(2-hydroxy-4-methyl-6-quinolyl)-2-pyrazol-1-yl-benzamide] returned an IC50 of 500 to 1000 nM.
